{"source": "patent US10105384B2", "about": "“Nucleic acids targeting TCTP for use in the treatment of chemo- or hormone-resistant cancers” (INSTITUT NATIONAL DE LA SANTE ET DE LA RECHERCHE MEDICALE …, priority 2010, dated 2018)", "assay_type_in_all_cases": "cell-based, human", "key": {"[1]": {"test_system": "TCTP", "test": "TCTP half-life / proteasomal degradation in PC-3 cells (western blot)", "details": "for TCTP protein levels decrease: PC-3 cells, cycloheximide alone 20 μg/ml", "description": "Cells were plated at a density of 25,000 (PC-3) and 75 000 (LNCaP and C4-2) by 1.9 cm^2 and treated the day after with indicated siRNA or ASO for 1 or 2 days respectively. Oligofectamine, a cationic lipid (Invitrogen), was used to increase siRNA or ASO uptake into the cells. Cells were treated with indicated siRNA or ASO concentrations after a preincubation for 20 min with […] of oligofectamine in serum free OPTI-MEM (Invitrogen). Four hours later, 1 ml of FCS was added in the medium. […]\nTo determine whether the ubiquitination of TCTP results in its proteasomal degradation, TCTP half-life was determined after OGX-427 treatment, in the presence or absence of the proteasome inhibitor MG132 and protein synthesis inhibitor cycloheximide after 2 days."}, "[2]": {"test_system": "TCTP", "test": "TCTP level in LNCaP cells after Hsp27 down-regulation by OGX-427 (western blot, mRNA)", "description": "(§1) Western Blot analysis was performed as described previously (Rocchi et al., 2004, Cancer Res. 64:6595-602) with 1:5000 rabbit anti-Hsp27 polyclonal antibody (Assay Designs, Villeurbanne, France), 1:2000 rabbit TCTP polyclonal antibody (Abcam Inc., Cambridge, UK), 1:250 rabbit anti-MSL1v1 polyclonal antibody (Abcam Inc.), 1:500 mouse anti-ubiquitin monoclonal antibody (Santa Cruz Biotechnology Inc., Heidelberg, Germany) or 1:1000 rabbit anti-caspase-3 polyclonal antibody (Cell Signalling Technology Inc., Danvers, USA). Loading levels were normalized using 1:5000 rabbit anti-glyceraldehyde-3-phosphate dehydrogenase polyclonal (Abcam Inc.) or 1:2500 mouse anti-vinculine monoclonal antibodies (Sigma Chemical Co., St Louis, Mo., USA).\n2′-O-(2-rnethoxyethyl) ASO, OGX-427, was obtained from OncoGenex. The sequence of OGX-427 corresponds to the human Hsp27 translation initiation site (5′-GGGACGCGG-CGCTCGGTCAT-3′) (SEQ ID NO: 12). A mismatch ASO (ASO; 5′-[…]-3′) (SEQ ID NO: 13) was used as a control. The TCTP phosphorithioate ASO targeting the human TCTP (5′-[…]-3′) (SEQ ID NO: 2) and the control oligonucleotide (5′-CGTGTAGGTACGGCAGATC-3′) (SEQ ID NO: 4) were purchased from Operon (Eurofin MWG, Courtaboeuf, France) and designated ASO TCTP or ASO scrambled. […]"}, "[3]": {"test_system": "TCTP", "test": "ASO sequences screening: TCTP expression by western blot and/or qRT-PCR", "details": "WB and/or qRT-PCR, PC-3 cells overexpressing TCTP", "description": "as §1\nThe quantitative reverse transcription polymerase chain reaction (qRT-PCR) analysis was done on a LightCycler detection system (Roche Applied Science, Meylan, France). Expression levels of 18S subunit of the ribosome gene were used as an internal control. First strand cDNA was synthesized from 1 μg of total RNA using random hexamers and expanded by reverse transcriptase according to the manufacturer's instructions (ImProm-II Reverse Transcription System, Promega, Charbonniéres-les-Bains, France), subsequently diluted 1:10 with water, and stored at −20° C. until use. TCTP and 18S polymerase chain reaction (PCR) products were detected by quantitative real time PCR (qRT-PCR) using the SYBR Premix Ex Taq (Takara Bio Inc, St Germain en Laye, France) following the manufacturer's instructions. Five microliters of diluted cDNA template were mixed with 10 μl SYBR Premix Ex Taq (including Taq polymerase, reaction buffer, MgCl2, SYBR green I dye, and deoxynucleotide triphosphate mix) and 0.4 μM forward and reverse primers, in a final volume of 20 μl. The following primers were used: TCTP forward 5′-[…]-3′ (SEQ ID NO: 8) and TCTP reverse 5′-[…]-3′; (SEQ ID NO: 9); 18S forward 5′-[…]-3′ (SEQ ID NO: 10) and 18S reverse 5′-[…]-3′ (SEQ ID NO: 11). After an initial Taq activation for 10 seconds at 95° C., Light Cycler PCR was done using 55 cycles with the following cycling conditions: 95° C. for 5 seconds, 58° C. for 7 seconds, and 72° C. for 14 seconds. Each sample was analyzed in duplicate and the experiment was repeated three times. Results were analyzed using RealQuant data analysis software (Roche, Neuilly-sur-seine, France). The results analysis was done with the 2(-Delta Delta C(T)) Method (Livak K J. et al., 2001; Methods. 25:402-8).\nIn order to find a sequence ASO having an inhibiting effect on TCTP expression, 30 ASO sequences have been designed 26 of which are shown in table 1. Said 30 sequences cover the TCTP mRNA (accession number NM_003295). Using BLAST program, the specificity of said sequences has been studied. Among said 30 sequences, only 15 sequences have been identified as being specific for TCPT mRNA sequence (see table 1). The effect of said ASO sequences on TCTP expression was tested by western blot analysis (WB) and/or by quantitative reverse transcription polymerase chain reaction (qRT-PCR) on PC-3 cells overexpressing TCTP. WB and qRT-PCR were performed as exposed in example 1."}, "[4]": {"test_system": "PC-3 cells", "test": "MTT cell growth assay, PC-3 cells", "details": "PC-3 cells, 50 nM docetaxel 24 h, MTT", "description": "In brief, cells were seeded in each well of 12-well microtiter plates (30 000 to 50 000 cells per well) and allowed to attach overnight. To study the effect of TCTP downregulation on apoptosis induced by docetaxel, PC-3 cells were transiently transfected the day after seeding with 5 nM of TCTP siRNA for 48 h or 100 nM of TCTP ASO for 72 h. Cells were then treated with 50 nM of docetaxel and MTT assays were performed after 24 h. To assess the effect of TCTP downregulation on Hsp27 cytoprotection, LNCaP-Mock and -Hsp27 cells were transiently transfected the day after seeding with 5 nM of TCTP siRNA for 48 h. The down- or upregulation of TCTP effect on LNCaP and C4-2 cell viability was realized after transient transfections with 100 nM of TCTP ASO or 0.02 μg/μl of pDEST-TCTP for 72 h and 48 h respectively. Cells were then treated with 1 nM of docetaxel in serum-free media (mimics androgen withdrawal in vitro) and crystal violet assays were performed the day after. Each assay was performed in triplicate.\nTo assess the effect of TCTP down-regulation on CR cell growth, PC-3 cells were treated for 1 day with 5 nM TCTP siRNA or for 2 days with 100 nM TCTP ASO. At the end of the treatment, PC-3 cells were incubated with 50 nM of docetaxel. Growth rates of PC-3 cells were examined using the 3-(4,5-dimethylthiazol-2-yl)-2,5-diphenyltetrazolium bromide assay. […] The effect of the inhibition of TCTP on cell survival was analyzed in PC-3 after combined ASO and docetaxel-chemotherapy treatment. After 24 h of treatment with 50 nM of docetaxel, cell viability was determined using a MTT assay. The experiment was repeated in triplicate. *** differs from PC-3 transfected with control-siRNA (P50.001) using Statview software. […] The same effect has been observed with TCTP siRNA (SEQ ID NO: 3) and 5′-[…]-3′ (SEQ ID NO: 14) and 5′-[…]-3′ (SEQ ID NO: 15) ASOs.\nPC3 cells were transfected with a TCTP siRNA of SEQ ID NO: 3. Cell proliferation and apoptosis were studied using respectively MTT (3-(4,5-dimethylthiazol-2-yl)-2,5-diphenyl tetrazolium bromure) assay and flow cytometry.\nPC3 cells were transfected with a TCTP ASO of SEQ ID NO: 2. Cell proliferation and apoptosis were studied using respectively MTT assay and flow cytometry."}}, "note": "Peptide text beside a SMILES is read from it. * marks the point of attachment. Cbz = O=C(OCc1ccccc1)*"}
{"molecule": "CC(C)C[C@@H](C=O)NC(=O)[C@H](CC(C)C)NC(=O)[C@H](CC(C)C)NC(=O)OCc1ccccc1", "note": "[MG132] (Cbz-Leu-Leu-Leu-aldehyde)", "values": [{"measurement": "TCTP half-life", "setting": "[1]; PC-3 cells after OGX-427 treatment, MG132 10 μmol/L", "value": "prolonged the half-life of TCTP"}]}
{"molecule": "5′-GGGACGCGG-CGCTCGGTCAT-3′ (antisense GGGACGCGGCGCTCGGTCAT; 2'-O-(2-methoxyethyl) modified ASO, pattern not given here) [OGX-427, 2′-O-(2-methoxyethyl) ASO from OncoGenex corresponding to the human Hsp27 translation initiation site]", "values": [{"measurement": "TCTP mRNA expression level", "setting": "[2]; LNCaP cells treated by OGX-427", "value": "without any change"}, {"measurement": "TCTP protein level lower than OGX-427-control", "setting": "[2]; LNCaP cells, western blot", "value": 70, "unit": "%"}]}
{"molecule": "5′-TGGTTCATGACAATATCGAC-3′ (all phosphorothioate, sugars by position and methylation of C not given here) [ASO14]", "values": [{"measurement": "ability to inhibit TCTP expression", "setting": "[3]", "value": "strong ability to inhibit TCTP expression"}, {"measurement": "best ability to inhibit specifically TCTP expression", "setting": "[3]", "value": "best ability to inhibit specifically TCTP expression"}, {"measurement": "enhancement of docetaxel sensitivity", "setting": "[4]", "value": "same effect"}]}
{"molecule": "C[C@@H]1C[C@@H]([C@H](O)CC2CC(=O)NC(=O)C2)C(=O)[C@@H](C)C1", "note": "[cycloheximide]", "values": [{"measurement": "TCTP protein levels decrease", "setting": "[1]; 24 h", "value": 40, "unit": "%"}, {"measurement": "TCTP protein levels decrease", "setting": "[1]; 48 h", "value": 60, "unit": "%"}]}
{"molecule": "5′-AACTTGTTTCCTGCAGGTGA-3′ (all phosphorothioate, sugars by position and methylation of C not given here) [ASO15]", "values": [{"measurement": "ability to inhibit TCTP expression", "setting": "[3]", "value": "strong ability to inhibit TCTP expression"}, {"measurement": "best ability to inhibit specifically TCTP expression", "setting": "[3]", "value": "best ability to inhibit specifically TCTP expression"}, {"measurement": "enhancement of docetaxel sensitivity", "setting": "[4]", "value": "same effect"}]}
